From PubChem BioAssay (NCI)
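A five-concentration, 48-hour dose response in 96-well plates underlies each endpoint, interpolated linearly between surrounding concentrations. Definition used: TGI = concentration required for complete inhibition of growth.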

test system: HOP-18 NSCLC; assay: NCI anticancer screen, dose series, 48 h

Compound	TGI
C=C(C)C(=O)OC1C/C(CO)=C\C(O)C/C(C)=C/C2OC(=O)C(=C)C21 (stereo not given)	83.4 µM
COc1cc2ccnc([C@@H](OC(=O)c3ccccc3)c3ccc(OC)c(OC)c3OC)c2cc1OC	> 100 µM
O=C(O)CCNCCCNCCC(=O)O	> 100 µM
CN(C)N=Nc1ccc(C(N)=O)cc1	> 100 µM

test system: HOP-62 NSCLC; assay: NCI anticancer screen, dose series, 48 h

Compound	TGI
C=C(C)C(=O)OC1C/C(CO)=C\C(O)C/C(C)=C/C2OC(=O)C(=C)C21 (stereo not given)	> 100 µM
O=C(O)CCNCCCNCCC(=O)O	> 100 µM
CN(C)N=Nc1ccc(C(N)=O)cc1	> 100 µM

test system: HOP-92 NSCLC; assay: NCI anticancer screen, dose series, 48 h

Compound	TGI
C=C(C)C(=O)OC1C/C(CO)=C\C(O)C/C(C)=C/C2OC(=O)C(=C)C21 (stereo not given)	38.2 µM
COc1cc2ccnc([C@@H](OC(=O)c3ccccc3)c3ccc(OC)c(OC)c3OC)c2cc1OC	> 100 µM
O=C(O)CCNCCCNCCC(=O)O	> 100 µM
CN(C)N=Nc1ccc(C(N)=O)cc1	> 100 µM

test system: HT29 colon; assay: NCI anticancer screen, dose series, 48 h

Compound	TGI
C=C(C)C(=O)OC1C/C(CO)=C\C(O)C/C(C)=C/C2OC(=O)C(=C)C21 (stereo not given)	34.1 µM
COc1cc2ccnc([C@@H](OC(=O)c3ccccc3)c3ccc(OC)c(OC)c3OC)c2cc1OC	> 100 µM
O=C(O)CCNCCCNCCC(=O)O	> 100 µM
CN(C)N=Nc1ccc(C(N)=O)cc1	> 100 µM

test system: IGROV1 ovarian; assay: NCI anticancer screen, dose series, 48 h

Compound	TGI
C=C(C)C(=O)OC1C/C(CO)=C\C(O)C/C(C)=C/C2OC(=O)C(=C)C21 (stereo not given)	> 100 µM
COc1cc2ccnc([C@@H](OC(=O)c3ccccc3)c3ccc(OC)c(OC)c3OC)c2cc1OC	> 100 µM
O=C(O)CCNCCCNCCC(=O)O	> 100 µM
CN(C)N=Nc1ccc(C(N)=O)cc1	> 100 µM

test system: K-562 leukemia; assay: NCI anticancer screen, dose series, 48 h

Compound	TGI
C=C(C)C(=O)OC1C/C(CO)=C\C(O)C/C(C)=C/C2OC(=O)C(=C)C21 (stereo not given)	58.2 µM
COc1cc2ccnc([C@@H](OC(=O)c3ccccc3)c3ccc(OC)c(OC)c3OC)c2cc1OC	> 100 µM
O=C(O)CCNCCCNCCC(=O)O	> 100 µM
CN(C)N=Nc1ccc(C(N)=O)cc1	> 100 µM

test system: KM12 colon; assay: NCI anticancer screen, dose series, 48 h

Compound	TGI
C=C(C)C(=O)OC1C/C(CO)=C\C(O)C/C(C)=C/C2OC(=O)C(=C)C21 (stereo not given)	38.8 µM
COc1cc2ccnc([C@@H](OC(=O)c3ccccc3)c3ccc(OC)c(OC)c3OC)c2cc1OC	> 100 µM
O=C(O)CCNCCCNCCC(=O)O	> 100 µM
CN(C)N=Nc1ccc(C(N)=O)cc1	> 100 µM

test system: KM20L2 colon; assay: NCI anticancer screen, dose series, 48 h

Compound	TGI
C=C(C)C(=O)OC1C/C(CO)=C\C(O)C/C(C)=C/C2OC(=O)C(=C)C21 (stereo not given)	97.3 µM
COc1cc2ccnc([C@@H](OC(=O)c3ccccc3)c3ccc(OC)c(OC)c3OC)c2cc1OC	> 100 µM
O=C(O)CCNCCCNCCC(=O)O	> 100 µM
CN(C)N=Nc1ccc(C(N)=O)cc1	> 100 µM

test system: LOX IMVI melanoma; assay: NCI anticancer screen, dose series, 48 h

Compound	TGI
C=C(C)C(=O)OC1C/C(CO)=C\C(O)C/C(C)=C/C2OC(=O)C(=C)C21 (stereo not given)	35 µM
COc1cc2ccnc([C@@H](OC(=O)c3ccccc3)c3ccc(OC)c(OC)c3OC)c2cc1OC	> 100 µM
O=C(O)CCNCCCNCCC(=O)O	> 100 µM
CN(C)N=Nc1ccc(C(N)=O)cc1	> 100 µM

test system: LXFL 529 NSCLC; assay: NCI anticancer screen, dose series, 48 h

Compound	TGI
C=C(C)C(=O)OC1C/C(CO)=C\C(O)C/C(C)=C/C2OC(=O)C(=C)C21 (stereo not given)	32.2 µM
COc1cc2ccnc([C@@H](OC(=O)c3ccccc3)c3ccc(OC)c(OC)c3OC)c2cc1OC	> 100 µM
O=C(O)CCNCCCNCCC(=O)O	> 100 µM
CN(C)N=Nc1ccc(C(N)=O)cc1	> 100 µM

test system: M14 melanoma; assay: NCI anticancer screen, dose series, 48 h

Compound	TGI
C=C(C)C(=O)OC1C/C(CO)=C\C(O)C/C(C)=C/C2OC(=O)C(=C)C21 (stereo not given)	40.6 µM
COc1cc2ccnc([C@@H](OC(=O)c3ccccc3)c3ccc(OC)c(OC)c3OC)c2cc1OC	> 100 µM
O=C(O)CCNCCCNCCC(=O)O	> 100 µM
CN(C)N=Nc1ccc(C(N)=O)cc1	> 100 µM

test system: M19-MEL melanoma; assay: NCI anticancer screen, dose series, 48 h

Compound	TGI
C=C(C)C(=O)OC1C/C(CO)=C\C(O)C/C(C)=C/C2OC(=O)C(=C)C21 (stereo not given)	92.7 µM
COc1cc2ccnc([C@@H](OC(=O)c3ccccc3)c3ccc(OC)c(OC)c3OC)c2cc1OC	> 100 µM
O=C(O)CCNCCCNCCC(=O)O	> 100 µM
CN(C)N=Nc1ccc(C(N)=O)cc1	> 100 µM

test system: MALME-3M melanoma; assay: NCI anticancer screen, dose series, 48 h

Compound	TGI
C=C(C)C(=O)OC1C/C(CO)=C\C(O)C/C(C)=C/C2OC(=O)C(=C)C21 (stereo not given)	39 µM
COc1cc2ccnc([C@@H](OC(=O)c3ccccc3)c3ccc(OC)c(OC)c3OC)c2cc1OC	99.8 µM
O=C(O)CCNCCCNCCC(=O)O	> 100 µM
CN(C)N=Nc1ccc(C(N)=O)cc1	> 100 µM

test system: MOLT-4 leukemia; assay: NCI anticancer screen, dose series, 48 h

Compound	TGI
C=C(C)C(=O)OC1C/C(CO)=C\C(O)C/C(C)=C/C2OC(=O)C(=C)C21 (stereo not given)	56.2 µM
COc1cc2ccnc([C@@H](OC(=O)c3ccccc3)c3ccc(OC)c(OC)c3OC)c2cc1OC	> 100 µM
O=C(O)CCNCCCNCCC(=O)O	> 100 µM
CN(C)N=Nc1ccc(C(N)=O)cc1	> 100 µM
